Columns and labels:
[1] = test system: Smad2/Smad3 phosphorylation; experiment: Phospho-Smad2/3 Inhibition Assay (western blot), Panc-1; format: cell-based, human; conditions: at 10 μM, Panc-1 pancreatic cancer cell line; starred symbols = activation
Procedure, shortened: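 Western blotting of lysates (15-50 μg protein) read phosphorylation of Smad2 Ser465/467 and Smad3 Ser423/425. Before lysis, Panc-1 cells got 1 h of 10 ng/ml TGF-b1 following 3 h compound exposure at 37° C (10 μM final, or serial dilutions for IC50, 0.3% DMSO) after overnight 0.5% FBS starvation.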

Erk1/2 phosphorylation = experiment: Erk1/2 Phosphorylation Assay (western blot), Panc-1; format: cell-based, human; conditions: at 10 μM, * = activation
Procedure, shortened: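 Phospho-Erk1/2 (Thr202/Tyr204) was detected by western blot in lysates of Panc-1 cells (KRas G12D). These had 6 h, 37° C exposure to 10 μM compound or a dilution series for IC50, in 0.3% DMSO. Cells were either starved overnight in 0.5% FBS with a 15-min 1.5 ng/ml EGF pulse, or kept unstimulated in 10% FBS.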

Compound	% inh of Smad2/3 phosphorylation in Panc-1 [1]	% inh of Erk1/2 phosphorylation in Panc-1 (Erk1/2 phosphorylation)
Cc1c(-c2ccn(C)n2)cn2nc(-c3nccn3C)nc(Nc3ccc(N(C)C)cn3)c12 [Compound 227, N5,N5-Dimethyl-N2-(5-methyl-2-(1-methyl-1H-imidazol-2-yl)-6-(1-methyl-1H-pyrazol-3-yl)pyrrolo[2,1-f][1,2,4]triazin-4-yl)pyridine-2,5-diamine]	C (C = 46-75% inhibition)	C* (46-84% activation)
Cc1c(-c2ccn(C)n2)cn2nc(-c3nccn3C)nc(Nc3ccc(N4CCCC4)cn3)c12 [Compound 228, 5-Methyl-2-(1-methyl-1H-imidazol-2-yl)-6-(1-methyl-1H-pyrazol-3-yl)-N-(5-(pyrrolidin-1-yl)pyridin-2-yl)pyrrolo[2,1-f][1,2,4]triazin-4-amine]	0 (0 = 0% inhibition)	A* (1-25% activation)
CCOc1ccc(Nc2nc(-c3nccn3C)nn3cc(-c4ccn(C)n4)c(C)c23)nc1 [Compound 229, N-(5-Ethoxypyridin-2-yl)-5-methyl-2-(1-methyl-1H-imidazol-2-yl)-6-(1-methyl-1H-pyrazol-3-yl)pyrrolo[2,1-f][1,2,4]triazin-4-amine]	A* (A* = 1-25% activation)	A (1-25% inhibition)
Cc1c(-c2ccn(C)n2)cn2nc(-c3nccn3C)nc(Nc3ccc(OCC(F)(F)F)cn3)c12 [Compound 230, 5-Methyl-2-(1-methyl-1H-imidazol-2-yl)-6-(1-methyl-1H-pyrazol-3-yl)-N-(5-(2,2,2-trifluoroethoxy)pyridin-2-yl)pyrrolo[2,1-f][1,2,4]triazin-4-amine]	D (D = 76-100% inhibition)	D* (85-100% activation)
Cc1c(-c2ccn(C)n2)cn2nc(-c3nccn3C)nc(Nc3ccc(OC(F)F)cn3)c12 [Compound 231, N-(5-(Difluorometh-oxy)pyridin-2-yl)-5-methyl-2-(1-methyl-1H-imidazol-2-yl)-6-(1-methyl-1H-pyrazol-3-yl)pyrrolo[2,1-f][1,2,4]triazin-4-amine]	D (D = 76-100% inhibition)	D* (85-100% activation)
Cc1c(-c2ccn(C)n2)cn2nc(-c3nccn3C)nc(Nc3ccc(OC(F)(F)F)cn3)c12 [Compound 232, 5-Methyl-2-(1-methyl-1H-imidazol-2-yl)-6-(1-methyl-1H-pyrazol-3-yl)-N-(5-(trifluoro-methoxy)pyridin-2-yl)pyrrolo[2,1-f][1,2,4]triazin-4-amine]	B (B = 26-45% inhibition)	B* (26-49% activation)
Cc1c(-c2ccn(C)n2)cn2nc(-c3nccn3C)nc(Nc3ccc(C(F)(F)F)cn3)c12 [Compound 233, 5-Methyl-2-(1-methyl-1H-imidazol-2-yl)-6-(1-methyl-1H-pyrazol-3-yl)-N-(5-(trifluoromethyl)pyridin-2-yl)pyrrolo[2,1-f][1,2,4]triazin-4-amine]	B (B = 26-45% inhibition)	D* (85-100% activation)
Cc1c(-c2ccn(C)n2)cn2nc(-c3nccn3C)nc(Nc3ccc(C(F)F)cn3)c12 [Compound 234, N-(5-(Difluoromethyl)pyridin-2-yl)-5-methyl-2-(1-methyl-1H-imidazol-2-yl)-6-(1-methyl-1H-pyrazol-3-yl)pyrrolo[2,1-f][1,2,4]triazin-4-amine]	D (D = 76-100% inhibition)	D* (85-100% activation)
COc1cc(Nc2nc(-c3nccn3C)nn3cc(-c4ccn(C)n4)c(C)c23)ncc1C [Compound 235, N-(4-Methoxy-5-methylpyridin-2-yl)-5-methyl-2-(1-methyl-1H-imidazol-2-yl)-6-(1-methyl-1H-pyrazol-3-yl)pyrrolo[2,1-f][1,2,4]triazin-4-amine]	0 (0 = 0% inhibition)	B* (26-49% activation)
COc1cnc(Nc2nc(-c3nccn3C)nn3cc(-c4ccn(C)n4)c(C)c23)cc1C [Compound 236, N-(5-Methoxy-4-methylpyridin-2-yl)-5-methyl-2-(1-methyl-1H-imidazol-2-yl)-6-(1-methyl-1H-pyrazol-3-yl)pyrrolo[2,1-f][1,2,4]triazin-4-amine]	0 (0 = 0% inhibition)	D* (85-100% activation)
COc1cc(Nc2nc(-c3nccn3C)nn3cc(-c4ccn(C)n4)c(C)c23)ncc1F [Compound 237, N-(5-Fluoro-4-methoxypyridin-2-yl)-5-methyl-2-(1-methyl-1H-imidazol-2-yl)-6-(1-methyl-1H-pyrazol-3-yl)pyrrolo[2,1-f][1,2,4]triazin-4-amine]	A (A = 1-25% inhibition)	0 (0% inhibition)
COc1cc(Nc2nc(-c3nccn3C)nn3cc(-c4ccn(C)n4)c(C)c23)ncc1C1CC1 [Compound 238, N-(5-Cyclopropyl-4-methoxypyridin-2-yl)-5-methyl-2-(1-methyl-1H-imidazol-2-yl)-6-(1-methyl-1H-pyrazol-3-yl)pyrrolo[2,1-f][1,2,4]triazin-4-amine]	0 (0 = 0% inhibition)	A (1-25% inhibition)
Cc1cnc2c(c1)CCN2c1nc(-c2nccn2C)nn2cc(-c3ccn(C)n3)c(C)c12 [Compound 239, 5-Methyl-2-(1-methyl-1H-imidazol-2-yl)-6-(1-methyl-1H-pyrazol-3-yl)-4-(5-methyl-2,3-dihydro-1H-pyrrolo[2,3-b]pyridin-1-yl)pyrrolo[2,1-f][1,2,4]triazine]	0 (0 = 0% inhibition)	C* (46-84% activation)
Cc1c(-c2ccn(C)n2)cn2nc(-c3nccn3C)nc(Nc3cc(C(C)(C)O)ccn3)c12 [Compound 240, 2-(2-((5-Methyl-2-(1-methyl-1H-imidazol-2-yl)-6-(1-methyl-1H-pyrazol-3-yl)pyrrolo[2,1-f][1,2,4]triazin-4-yl)amino)pyridin-4-yl)propan-2-ol]	0 (0 = 0% inhibition)	A* (1-25% activation)
Cc1c(-c2ccn(C)n2)cn2nc(-c3nccn3C)nc(Nc3ccc(C(C)(C)O)cn3)c12 [Compound 241, 2-(6-((5-Methyl-2-(1-methyl-1H-imidazol-2-yl)-6-(1-methyl-1H-pyrazol-3-yl)pyrrolo[2,1-f][1,2,4]triazin-4-yl)amino)pyridin-3-yl)propan-2-ol]	C* (C* = 46-75% activation)	D* (85-100% activation)
Cc1c(-c2ccn(C)n2)cn2nc(-c3nccn3C)nc(Nc3ccc(-n4ccnc4)cn3)c12 [Compound 242, N-(5-(1H-Imidazol-1-yl)pyridin-2-yl)-5-methyl-2-(1-methyl-1H-imidazol-2-yl)-6-(1-methyl-1H-pyrazol-3-yl)pyrrolo[2,1-f][1,2,4]triazin-4-amine]	A (A = 1-25% inhibition)	0 (0% inhibition)
Cc1c(-c2ccn(C)n2)cn2nc(-c3nccn3C)nc(Nc3ccc(-n4ccnc4C)cn3)c12 [Compound 243, 5-Methyl-N-(5-(2-methyl-1H-imidazol-1-yl)pyridin-2-yl)-2-(1-methyl-1H-imidazol-2-yl)-6-(1-methyl-1H-pyrazol-3-yl)pyrrolo[2,1-f][1,2,4]triazin-4-amine]	A* (A* = 1-25% activation)	C* (46-84% activation)

Reference: patent US12459951B2, “Compounds that interact with RAS superfamily proteins for treatment of cancers, inflammatory diseases, rasopathies, and fibrotic disease” (SHY Therapeutics, LLC, priority 2022, dated 2025)
